Measurements from US11179399B2, “6-heterocyclyl-4-morpholin-4-ylpyridine-2-one compounds useful for the treatment of cancer and diabetes” (Sprint Bioscience AB, priority 2016, dated 2021).
Like-named read-outs stand apart in the source and are kept apart here.

Assays:
Vps34 enzyme = Vps34 enzyme (Homo sapiens (Human), UniProt Q8NEB9); test: Vps34 biochemical assay (Adapta kinase assay); details: 20 μM ATP and 200 μM PI:PS in substrate mix, 1 h at room temperature, read-out: Median IC50 uM Adapta
Procedure: Dilution series of compounds of the invention were prepared in DMSO at 100 times the final assay concentration (n1=n0/3 in 10 points). The compounds were further diluted to 4 times the assay concentration in assay buffer (Life technologies buffer Q, PV5125, diluted 5 times supplemented with 2 mM DTT and 2 mM MnCl2). 2.5 μl of the diluted compounds were added to a 384 well assay plate followed by 2.5 μl of 16.5 nM Vps34 enzyme (Life technologies, PV5126). Enzyme and compounds were pre-incubated at rt for 15 min. Then 5 μl of substrate mix containing 20 μM ATP (Life technologies, PV3227) and 200 μM PI:PS substrate (Life technologies, PV5122) in assay buffer was added to the wells containing compound and enzyme. Mixing was performed by pipetting several times. The reaction was incubated at room temperature for 1 h. Then 5 μl stop-detection mix, prepared as described in the Adapta kinase assay kit instructions (Life technologies, PV5099) containing Adapta Eu-anti-ADP antibody (2.3 nM), Alexa Fluor 647 ADP tracer (9 nM) and EDTA (30 mM) in TR-FRET buffer, was added to quench the reaction. Mixing was performed by pipetting several times. The assay plate was then incubated at room temperature for 30 min and read with Artemis micro plate reader. Percent inhibition of the compounds as compared to DMSO treated control samples was calculated. By the use of Dotmatics software compound concentration versus percent inhibition was fitted to generate IC50 values.

[1] = system: autophagy in HOS cells (GFP-LC3); test: High content screening autophagy assay (GFP-LC3 foci); assay type: cell-based, Human; details: foci area per cell, read-out: Median IC50 (uM) Cellular assay
Procedure: Human osteosarcoma cells (HOS) stably expressing a Green Fluorescent Protein (GFP) tagged LC3 (GFP-LC3) were used to determine the inhibitory effect on autophagy of proprietary compounds. For that purpose, autophagy was activated by using the mTOR inhibitor KU-0063794 at 500 nM in the presence of Bafilomycin A1 (Sigma-Aldrich) at 5 nM. Shortly, cells were plated overnight in clear bottom 96-well plates in DMEM-High Modified media (Hi-Clone Cat #SH30285.01). At the start of the experiment, the media was removed and replaced with fresh media containing the mTOR inhibitor, Bafilomycin A1 and the vehicle or a test compound as indicated. After 6 hours the media was removed, cells were washed twice with ice-cold phosphate buffered saline (PBS) and fixed with 4% paraformaldehyde for 20 minutes at room temperature. Then the cells were washed twice with ice-cold PBS before adding Hoechst 33342 at 1 μg/ml in PBS for nuclear staining. After incubation overnight at 4° C., cells were washed once with PBS to remove the excess of dye and 100 μl of PBS was added to each well. Images were acquired at 20× magnification, 6 images per well, using the ImageXpress automated microscope (Molecular Devices Inc.) and analyzed with MetaXpress software to identify LC3-GFP foci. Foci area per cell values were used to generate dose response curves and IC50 values were calculated using the non-linear fitting analysis in GraphPad Prism software.

[2] = Homo sapiens, HOS, 6 h, HOS cells with GFP-LC3, autophagy activated by KU-0063794 500 nM with Bafilomycin A1 5 nM

Chain of Vps34 enzyme (Q8NEB9 whole entry): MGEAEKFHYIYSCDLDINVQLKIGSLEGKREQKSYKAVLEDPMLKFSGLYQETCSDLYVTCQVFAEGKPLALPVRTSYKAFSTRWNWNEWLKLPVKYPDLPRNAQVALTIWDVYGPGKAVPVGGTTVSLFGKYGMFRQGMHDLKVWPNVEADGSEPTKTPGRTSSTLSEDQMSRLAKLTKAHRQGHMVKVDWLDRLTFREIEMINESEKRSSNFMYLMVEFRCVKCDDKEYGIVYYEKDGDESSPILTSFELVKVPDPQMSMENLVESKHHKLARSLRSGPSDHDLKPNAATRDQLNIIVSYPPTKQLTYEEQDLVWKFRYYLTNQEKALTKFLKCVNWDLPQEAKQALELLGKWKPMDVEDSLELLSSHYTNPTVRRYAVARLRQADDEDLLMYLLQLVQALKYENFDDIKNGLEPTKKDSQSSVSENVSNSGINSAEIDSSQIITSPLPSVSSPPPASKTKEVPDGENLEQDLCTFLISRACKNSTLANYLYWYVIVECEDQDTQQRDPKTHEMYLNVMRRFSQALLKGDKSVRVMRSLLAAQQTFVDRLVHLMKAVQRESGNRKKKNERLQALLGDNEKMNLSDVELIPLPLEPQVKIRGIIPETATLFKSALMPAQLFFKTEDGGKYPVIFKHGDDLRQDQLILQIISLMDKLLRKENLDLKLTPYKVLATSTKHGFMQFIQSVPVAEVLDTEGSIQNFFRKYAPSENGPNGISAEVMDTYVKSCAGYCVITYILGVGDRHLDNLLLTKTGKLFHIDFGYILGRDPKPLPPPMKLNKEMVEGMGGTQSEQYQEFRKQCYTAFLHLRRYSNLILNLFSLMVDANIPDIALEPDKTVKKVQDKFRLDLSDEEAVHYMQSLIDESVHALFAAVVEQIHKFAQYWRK

SMILES | IC50 (Vps34 enzyme) [µM] | IC50 [1, 2] [µM] | IC50 ([1]; HOS cells with GFP-LC3, autophagy activated by KU-0063794 500 nM with Bafilomycin A1 5 nM, 6 hours) [µM]
C[C@@H]1COCCN1c1cc(N2CCCC2c2cccc(F)c2)[nH]c(=O)c1 (mixture of isomers) [Example 13, (R) and (S) 6-[2-(3-fluorophenyl)pyrrolidin-1-yl]-4-[(3R)-3-methylmorpholin-4-yl]-1H-pyridin-2-one] | 0.02 | 2 | 
C[C@@H]1COCCN1c1cc(N2CCCC2c2cccc(C(F)(F)F)c2)[nH]c(=O)c1 (mixture of isomers) [Example 16, (R) and (S) 4-[(3R)-3-methylmorpholin-4-yl]-6-[2-[3-(trifluoromethyl)phenyl]pyrrolidin-1-yl]-1H-pyridin-2-one] | 0.04 | 0.3 | 
COc1cccc(C2CCCN2c2cc(N3CCOC[C@H]3C)cc(=O)[nH]2)c1 (mixture of isomers) [Example 17, (R) and (S) 6-[2-(3-methoxyphenyl)pyrrolidin-1-yl]-4-[(3R)-3-methylmorpholin-4-yl]-1H-pyridin-2-one] | 0.01 | 0.1 | 
C[C@@H]1COCCN1c1cc(N2CCCCC2C(F)(F)F)[nH]c(=O)c1 (mixture of isomers) [Example 25, (R) and (S) 4-[(3R)-3-methylmorpholin-4-yl]-6-[2-(trifluoromethyl)-1-piperidyl]-1H-pyridin-2-one] | 0.004 | 0.02 | 
C[C@@H]1COCCN1c1cc(N2CCCC2c2cccc(Cl)c2)[nH]c(=O)c1 (mixture of isomers) [Example 36, (R) and (S) 6-[2-(3-chlorophenyl)pyrrolidin-1-yl]-4-[(3R)-3-methylmorpholin-4-yl]-1H-pyridin-2-one] | 0.02 | 0.03 | 
COc1cccc(C2CCCN2c2cc(N3CCOC[C@H]3C)cc(=O)[nH]2)c1 (single isomer, unassigned) [Example 17_2] | 0.006 | 0.3 | 
C[C@@H]1COCCN1c1cc(N2CCCC2c2ccccc2)[nH]c(=O)c1 (single isomer, unassigned) [Example 18_2] | 0.02 | 1 | 
CC1COCCN1c1cc(N2CCOC[C@H]2C)cc(=O)[nH]1 (single isomer, unassigned) [Example 24_1] | 0.01 | 1.4 | 
C[C@@H]1COCCN1c1cc(N2CCCCC2C(F)(F)F)[nH]c(=O)c1 (single isomer, unassigned) [Example 25_1] | 0.002 | 0.03 | 
C[C@@H]1COCCN1c1cc(N2CCOCC2c2ccccc2)[nH]c(=O)c1 (single isomer, unassigned) [Example 26_1] | 0.04 | 0.2 | 
C[C@@H]1COCCN1c1cc(N2CCCC2c2cccc(Cl)c2)[nH]c(=O)c1 (single isomer, unassigned) [Example 36_1] | 0.01 | 0.4 | 
C[C@@H]1COCCN1c1cc(N2CCCC2c2cccc(Cl)c2)[nH]c(=O)c1 (single isomer, unassigned) [Example 36_2] | 0.02 |  | 0.7
C[C@@H]1COCCN1c1cc(N2CCOCC2C(F)(F)F)[nH]c(=O)c1 (single isomer, unassigned) [Example 43_1] | 0.003 | 0.03 | 
COc1cccc(C2CCCCN2c2cc(N3CCOC[C@H]3C)cc(=O)[nH]2)c1 (single isomer, unassigned) [Example 44_1] | 0.001 | 0.2 | 
C[C@@H]1COCCN1c1cc(N2CCN(C(=O)C3CCCO3)CC2C(F)(F)F)[nH]c(=O)c1 (single isomer, unassigned) [Example 48_1] | 0.01 |  | 
C[C@@H]1COCCN1c1cc(N2CCN(C(=O)C3CCCO3)CC2C(F)(F)F)[nH]c(=O)c1 (single isomer, unassigned) [Example 48_2] | 0.02 |  | 
O=c1cc(N2CCOCC2)cc(N2CCCC2c2ccccc2)[nH]1 (stereo not shown) [Example 1, 4-morpholino-6-(2-phenylpyrrolidin-1-yl)-1H-pyridin-2-one] | 0.05 | 5 | 

SMILES | IC50 (Vps34 enzyme) [µM] | IC50 [1, 2] [µM] | IC50 ([1]; HOS cells with GFP-LC3, autophagy activated by KU-0063794 500 nM with Bafilomycin A1 5 nM, 6 hours) [µM]
Cn1c(N2CCCC2c2ccccc2)cc(N2CCOCC2)cc1=O (stereo not shown) [Example 2, 1-methyl-4-morpholino-6-(2-phenylpyrrolidin-1-yl)pyridin-2-one] | 0.1 |  | 
O=c1cc(N2CCOCC2)cc(N2CCC[C@H]2c2ccccc2)[nH]1 [Example 3, 4-morpholino-6-[(2S)-2-phenylpyrrolidin-1-yl]-1H-pyridin-2-one] | 0.2 | 13 | 
O=c1cc(N2CCOCC2)cc(N2CCC[C@@H]2c2ccccc2)[nH]1 [Example 4, 4-morpholino-6-[(2R)-2-phenylpyrrolidin-1-yl]-1H-pyridin-2-one] | 0.05 | 9 | 
CC1COCCN1c1cc(C2=CCOCC2)[nH]c(=O)c1 (stereo not shown) [Example 5, 6-(3,6-dihydro-2H-pyran-4-yl)-4-(3-methylmorpholin-4-yl)-1H-pyridin-2-one] | 0.2 | 15 | 
CC1COCCN1c1cc(C2CCOCC2)[nH]c(=O)c1 (stereo not shown) [Example 6, 4-(3-methylmorpholin-4-yl)-6-tetrahydropyran-4-yl-1H-pyridin-2-one] | 0.2 | 5 | 
COc1cccc(C2CCCN2c2cc(N3CCOCC3C)cc(=O)[nH]2)c1 (stereo not shown) [Example 7, 6-[2-(3-methoxyphenyl)pyrrolidin-1-yl]-4-(3-methylmorpholin-4-yl)-1H-pyridin-2-one] | 0.004 | 0.5 | 
CC1COCCN1c1cc(N2CCCC2c2cccnc2)[nH]c(=O)c1 (stereo not shown) [Example 8, 4-(3-methylmorpholin-4-yl)-6-[2-(3-pyridyl)pyrrolidin-1-yl]-1H-pyridin-2-one] | 0.05 | 10 | 
C[C@@H]1COCCN1c1cc(N2CCCC2C(=O)N(C)C)[nH]c(=O)c1 (stereo partly drawn) [Example 10, N,N-dimethyl-1-[4-[(3R)-3-methylmorpholin-4-yl]-6-oxo-1H-pyridin-2-yl]pyrrolidine-2-carboxamide] | 0.4 |  | 
C[C@@H]1COCCN1c1cc(N2CC[S+]([O-])CC2)[nH]c(=O)c1 [Example 27, 4-[(3R)-3-methylmorpholin-4-yl]-6-(1-oxo-1,4-thiazinan-4-yl)-1H-pyridin-2-one] | 0.4 |  | 
C[C@@H]1COCCN1c1cc(N2CCS(=O)(=O)CC2)[nH]c(=O)c1 [Example 28, 6-(1,1-dioxo-1,4-thiazinan-4-yl)-4-[(3R)-3-methylmorpholin-4-yl]-1H-pyridin-2-one] | 0.4 |  | 
CC(=O)N1CCN(c2cc(N3CCOC[C@H]3C)cc(=O)[nH]2)CC1 [Example 29, 6-(4-acetylpiperazin-1-yl)-4-[(3R)-3-methylmorpholin-4-yl]-1H-pyridin-2-one] | 0.2 |  | 
C[C@@H]1COCCN1c1cc(N2CCN(C)CC2c2ccccc2)[nH]c(=O)c1 (stereo partly drawn) [Example 31, 4-[(3R)-3-methylmorpholin-4-yl]-6-(4-methyl-2-phenyl-piperazin-1-yl)-1H-pyridin-2-one] | 0.3 |  | 
C[C@@H]1COCCN1c1cc(N2CCOCC2C2CC2)[nH]c(=O)c1 (stereo partly drawn) [Example 33, 6-(3-cyclopropylmorpholin-4-yl)-4-[(3R)-3-methylmorpholin-4-yl]-1H-pyridin-2-one] | 0.03 |  | 
C[C@@H]1COCCN1c1cc(N2CCC[C@H]2C(F)(F)F)[nH]c(=O)c1 [Example 34, 4-[(3R)-3-methylmorpholin-4-yl]-6-[(2S)-2-(trifluoromethyl)pyrrolidin-1-yl]-1H-pyridin-2-one] | 0.1 |  | 
C[C@@H]1COCCN1c1cc(N2CCOCC23CCC3)[nH]c(=O)c1 [Example 42, 4-[(3R)-3-methylmorpholin-4-yl]-6-(8-oxa-5-azaspiro[3.5]nonan-5-yl)-1H-pyridin-2-one] | 0.03 |  | 
C[C@@H]1COCCN1c1cc(N2CCN(C(=O)c3cncc(F)c3)CC2C(F)(F)F)[nH]c(=O)c1 (stereo partly drawn) [Example 46, 6-[4-(5-fluoropyridine-3-carbonyl)-2-(trifluoromethyl)piperazin-1-yl]-4-[(3R)-3-methylmorpholin-4-yl]-1H-pyridin-2-one] | 0.005 |  | 
C[C@@H]1COCCN1c1cc(N2CCN(C)CC2C(F)(F)F)[nH]c(=O)c1 (stereo partly drawn) [Example 49, 4-[(3R)-3-methylmorpholin-4-yl]-6-[4-methyl-2-(trifluoromethyl)piperazin-1-yl]-1H-pyridin-2-one] | 0.03 |  | 
